Where “and” joins values, the source holds several entries; their conditions need not be identical. Equal entries are not always repeated.
Tests used:
Assay in all cases: PamChip tyrosine kinase microarray
Assay type in all cases: biochemical
Details in all cases: 0.1 µM, HL60 lysate
HER4 (Q15303) = molecular target: T1, HER4 (Q15303) (Homo sapiens, UniProt Q15303)
T1 construct: purchased PamGene (PamChip PTK array, Upstream Kinase Analysis)
Method in brief: (§1)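 HL60 (AML) cell lysate was spiked with compound at 0.001, 0.01, 0.1, 1, 10 and 50 µM, or 2% v/v DMSO as control, then profiled in technical replicates on a tyrosine kinase peptide array of 196 phosphosites. Kinase activity was inferred from peptide-set changes using an upstream kinase tool.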

Ros (P08922) = molecular target: T2, Ros (P08922) (Homo sapiens, UniProt P08922)
T2 construct: purchased PamGene (PamChip PTK array, Upstream Kinase Analysis)
Method in brief: as §1

DDR1 (Q08345) = molecular target: T3, DDR1 (Q08345) (Homo sapiens, UniProt Q08345)
T3 construct: purchased PamGene (PamChip PTK array, Upstream Kinase Analysis)
T3 sequence (Q08345 19-913): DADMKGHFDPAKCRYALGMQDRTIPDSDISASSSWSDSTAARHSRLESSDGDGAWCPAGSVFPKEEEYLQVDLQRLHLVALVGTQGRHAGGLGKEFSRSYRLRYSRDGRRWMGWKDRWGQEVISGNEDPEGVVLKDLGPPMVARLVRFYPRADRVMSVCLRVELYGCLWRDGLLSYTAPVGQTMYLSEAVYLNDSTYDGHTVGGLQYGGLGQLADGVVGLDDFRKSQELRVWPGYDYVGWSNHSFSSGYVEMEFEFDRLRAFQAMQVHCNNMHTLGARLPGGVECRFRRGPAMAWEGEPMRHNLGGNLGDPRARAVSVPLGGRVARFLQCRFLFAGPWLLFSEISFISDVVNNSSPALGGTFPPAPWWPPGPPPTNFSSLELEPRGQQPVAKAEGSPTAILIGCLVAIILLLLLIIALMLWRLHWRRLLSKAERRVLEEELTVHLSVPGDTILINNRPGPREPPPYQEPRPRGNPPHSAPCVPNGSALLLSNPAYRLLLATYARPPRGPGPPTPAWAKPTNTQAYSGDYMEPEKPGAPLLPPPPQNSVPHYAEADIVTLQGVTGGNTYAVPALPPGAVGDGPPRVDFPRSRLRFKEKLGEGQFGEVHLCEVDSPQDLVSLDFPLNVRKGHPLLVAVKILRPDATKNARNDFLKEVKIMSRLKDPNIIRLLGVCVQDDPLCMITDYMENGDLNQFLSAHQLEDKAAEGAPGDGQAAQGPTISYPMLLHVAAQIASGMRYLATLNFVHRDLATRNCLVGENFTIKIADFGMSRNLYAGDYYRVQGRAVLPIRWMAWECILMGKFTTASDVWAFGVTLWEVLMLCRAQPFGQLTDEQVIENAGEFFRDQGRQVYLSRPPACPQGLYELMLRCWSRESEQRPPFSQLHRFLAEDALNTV
Method in brief: as §1

EphA3 (P29320) = molecular target: T4, EphA3 (P29320) (Homo sapiens, UniProt P29320)
T4 construct: purchased PamGene (PamChip PTK array, Upstream Kinase Analysis)
T4 sequence (P29320 21-983): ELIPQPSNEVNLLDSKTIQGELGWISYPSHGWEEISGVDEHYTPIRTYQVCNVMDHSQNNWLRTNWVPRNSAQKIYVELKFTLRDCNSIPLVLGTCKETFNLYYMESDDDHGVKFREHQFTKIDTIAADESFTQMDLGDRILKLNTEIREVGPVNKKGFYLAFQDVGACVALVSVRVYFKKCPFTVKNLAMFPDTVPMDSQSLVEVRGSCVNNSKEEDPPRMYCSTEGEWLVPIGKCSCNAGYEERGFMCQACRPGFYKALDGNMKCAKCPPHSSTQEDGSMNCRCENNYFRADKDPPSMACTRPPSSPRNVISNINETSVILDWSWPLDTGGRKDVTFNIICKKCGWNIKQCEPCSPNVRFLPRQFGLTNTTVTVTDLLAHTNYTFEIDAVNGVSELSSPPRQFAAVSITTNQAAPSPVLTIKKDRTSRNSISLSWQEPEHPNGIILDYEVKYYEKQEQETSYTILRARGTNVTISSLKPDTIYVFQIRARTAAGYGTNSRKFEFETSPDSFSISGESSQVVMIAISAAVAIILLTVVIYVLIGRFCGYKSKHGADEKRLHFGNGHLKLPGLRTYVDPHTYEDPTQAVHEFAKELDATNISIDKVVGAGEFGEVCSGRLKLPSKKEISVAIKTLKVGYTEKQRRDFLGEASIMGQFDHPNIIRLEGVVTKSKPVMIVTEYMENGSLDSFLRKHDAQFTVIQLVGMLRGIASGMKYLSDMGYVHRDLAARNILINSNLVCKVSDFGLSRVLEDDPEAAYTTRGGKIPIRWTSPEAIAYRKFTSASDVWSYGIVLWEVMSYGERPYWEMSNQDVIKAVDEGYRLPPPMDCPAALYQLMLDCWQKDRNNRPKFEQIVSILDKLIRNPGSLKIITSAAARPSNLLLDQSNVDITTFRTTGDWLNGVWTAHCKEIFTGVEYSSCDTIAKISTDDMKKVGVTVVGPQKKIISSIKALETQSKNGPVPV
Method in brief: as §1

Fes (P07332) = molecular target: T5, Fes (P07332) (Homo sapiens, UniProt P07332)
T5 construct: purchased PamGene (PamChip PTK array, Upstream Kinase Analysis)
T5 sequence (P07332 whole entry): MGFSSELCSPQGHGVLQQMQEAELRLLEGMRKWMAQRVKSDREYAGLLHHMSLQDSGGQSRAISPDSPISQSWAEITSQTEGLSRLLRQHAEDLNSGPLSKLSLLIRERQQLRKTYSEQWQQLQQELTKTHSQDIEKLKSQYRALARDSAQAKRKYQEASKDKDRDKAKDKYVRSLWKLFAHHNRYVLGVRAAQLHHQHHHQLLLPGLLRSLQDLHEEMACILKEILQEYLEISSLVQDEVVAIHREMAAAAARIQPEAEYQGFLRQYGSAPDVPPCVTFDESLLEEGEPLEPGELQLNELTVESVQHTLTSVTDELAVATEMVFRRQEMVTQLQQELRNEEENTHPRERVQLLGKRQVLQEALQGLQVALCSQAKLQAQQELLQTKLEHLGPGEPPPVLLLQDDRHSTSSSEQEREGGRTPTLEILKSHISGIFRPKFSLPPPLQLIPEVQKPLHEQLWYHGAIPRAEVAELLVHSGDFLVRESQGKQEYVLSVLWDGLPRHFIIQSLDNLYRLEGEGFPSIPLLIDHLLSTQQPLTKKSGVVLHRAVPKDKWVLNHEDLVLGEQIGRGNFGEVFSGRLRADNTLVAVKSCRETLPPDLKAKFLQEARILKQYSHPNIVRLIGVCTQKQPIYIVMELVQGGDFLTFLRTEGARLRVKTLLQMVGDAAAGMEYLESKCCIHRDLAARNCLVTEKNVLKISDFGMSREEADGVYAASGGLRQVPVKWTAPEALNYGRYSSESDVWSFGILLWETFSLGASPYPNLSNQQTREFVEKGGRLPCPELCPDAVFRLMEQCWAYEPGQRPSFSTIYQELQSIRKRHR
Method in brief: as §1

HER2 (P04626) = molecular target: T6, HER2 (P04626) (Homo sapiens, UniProt P04626)
T6 construct: purchased PamGene (PamChip PTK array, Upstream Kinase Analysis)
T6 sequence (P04626 23-1255): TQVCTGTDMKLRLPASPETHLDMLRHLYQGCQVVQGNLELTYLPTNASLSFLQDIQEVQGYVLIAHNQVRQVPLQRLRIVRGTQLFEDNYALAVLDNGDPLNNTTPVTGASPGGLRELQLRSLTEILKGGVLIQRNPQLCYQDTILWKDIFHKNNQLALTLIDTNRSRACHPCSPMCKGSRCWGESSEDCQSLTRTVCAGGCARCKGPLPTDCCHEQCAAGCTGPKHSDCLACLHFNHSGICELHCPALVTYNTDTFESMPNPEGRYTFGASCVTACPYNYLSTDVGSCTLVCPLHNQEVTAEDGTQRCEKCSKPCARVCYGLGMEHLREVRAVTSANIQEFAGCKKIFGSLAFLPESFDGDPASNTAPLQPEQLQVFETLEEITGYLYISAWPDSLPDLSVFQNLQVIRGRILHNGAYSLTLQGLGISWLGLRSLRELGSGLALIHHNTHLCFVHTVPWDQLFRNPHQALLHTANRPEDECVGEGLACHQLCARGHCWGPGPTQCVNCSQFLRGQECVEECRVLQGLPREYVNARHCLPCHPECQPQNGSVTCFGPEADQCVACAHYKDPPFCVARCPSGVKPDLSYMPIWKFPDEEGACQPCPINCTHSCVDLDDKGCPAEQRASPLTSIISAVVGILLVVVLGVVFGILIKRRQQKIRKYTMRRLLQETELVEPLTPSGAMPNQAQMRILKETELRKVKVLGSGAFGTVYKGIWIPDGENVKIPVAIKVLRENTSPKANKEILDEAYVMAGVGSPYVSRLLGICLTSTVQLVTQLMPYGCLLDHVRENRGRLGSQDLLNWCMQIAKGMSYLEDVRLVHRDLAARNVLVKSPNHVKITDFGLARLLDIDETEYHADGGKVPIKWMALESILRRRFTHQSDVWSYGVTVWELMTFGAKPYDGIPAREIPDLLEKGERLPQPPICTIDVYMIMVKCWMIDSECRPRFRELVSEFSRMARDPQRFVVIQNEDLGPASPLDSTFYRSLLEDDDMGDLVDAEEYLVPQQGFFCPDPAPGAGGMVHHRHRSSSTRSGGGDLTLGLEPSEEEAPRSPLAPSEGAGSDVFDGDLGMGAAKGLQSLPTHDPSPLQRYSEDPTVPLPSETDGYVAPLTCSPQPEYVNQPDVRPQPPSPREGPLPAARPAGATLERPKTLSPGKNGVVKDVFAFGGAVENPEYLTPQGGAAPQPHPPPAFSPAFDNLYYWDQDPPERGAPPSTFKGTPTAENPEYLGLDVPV
Method in brief: as §1

T1 sequence (Q15303 26-1308): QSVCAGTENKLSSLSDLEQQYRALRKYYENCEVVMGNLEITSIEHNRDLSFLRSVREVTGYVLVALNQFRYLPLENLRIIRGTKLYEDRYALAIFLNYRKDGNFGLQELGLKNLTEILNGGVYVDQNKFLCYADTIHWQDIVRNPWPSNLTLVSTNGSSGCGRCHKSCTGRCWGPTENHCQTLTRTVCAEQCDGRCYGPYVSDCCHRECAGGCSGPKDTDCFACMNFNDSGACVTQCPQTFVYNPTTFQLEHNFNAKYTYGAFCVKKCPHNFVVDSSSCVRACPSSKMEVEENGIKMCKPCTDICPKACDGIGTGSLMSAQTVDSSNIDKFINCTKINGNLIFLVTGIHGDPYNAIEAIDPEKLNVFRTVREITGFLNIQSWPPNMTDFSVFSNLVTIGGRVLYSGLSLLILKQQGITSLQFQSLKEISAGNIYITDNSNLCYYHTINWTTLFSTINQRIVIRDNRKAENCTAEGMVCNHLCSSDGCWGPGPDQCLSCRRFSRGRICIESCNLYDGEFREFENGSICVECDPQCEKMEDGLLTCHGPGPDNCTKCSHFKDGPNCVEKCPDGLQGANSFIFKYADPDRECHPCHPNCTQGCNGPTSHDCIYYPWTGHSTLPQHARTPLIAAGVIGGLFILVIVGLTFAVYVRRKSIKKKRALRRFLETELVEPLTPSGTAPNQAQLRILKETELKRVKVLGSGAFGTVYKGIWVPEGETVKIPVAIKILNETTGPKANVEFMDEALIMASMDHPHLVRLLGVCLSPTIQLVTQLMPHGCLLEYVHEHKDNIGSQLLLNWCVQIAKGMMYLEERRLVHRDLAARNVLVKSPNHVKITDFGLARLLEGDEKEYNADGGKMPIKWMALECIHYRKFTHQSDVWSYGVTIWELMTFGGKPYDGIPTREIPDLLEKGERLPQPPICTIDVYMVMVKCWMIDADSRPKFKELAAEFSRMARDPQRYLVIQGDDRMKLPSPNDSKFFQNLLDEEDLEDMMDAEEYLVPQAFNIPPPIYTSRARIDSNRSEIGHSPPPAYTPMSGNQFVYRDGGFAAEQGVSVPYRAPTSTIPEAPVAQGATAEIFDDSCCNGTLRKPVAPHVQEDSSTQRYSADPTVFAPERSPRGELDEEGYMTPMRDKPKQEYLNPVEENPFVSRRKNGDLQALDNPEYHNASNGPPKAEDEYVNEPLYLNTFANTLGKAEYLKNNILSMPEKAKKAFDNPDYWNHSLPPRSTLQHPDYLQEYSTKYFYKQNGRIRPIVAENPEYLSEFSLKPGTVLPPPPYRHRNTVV

## COc1ccc(/C=C2\N=C(C)N(c3ccc(CC(=O)NCc4ccccc4)cc3)C2=O)cc1 [Compound 4c, (Z)-N-Benzyl-2-(4-(4-(4-methoxybenzylidene)-2-methyl-5-oxo-4,5-dihydro-1H-imidazol-1-yl)phenyl)acetamide]
HER4 (Q15303)
  Mean Final score (Kinase score): 2.227
  Mean Kinase Statistic: -1.109
  Mean Significance Score: 2.048
  Mean Specificity Score: 0.2042
Ros (P08922)
  Mean Significance Score: 1.955
  Mean Specificity Score: 0.9862
Ros (P08922); listed as KIM-161
  Mean Final score (Kinase score): 2.90 and 2.9031
DDR1 (Q08345)
  Mean Final score (Kinase score): 2.262
  Mean Kinase Statistic: -1.216
  Mean Significance Score: 1.955
  Mean Specificity Score: 0.3662
EphA3 (P29320)
  Mean Final score (Kinase score): 1.273
  Mean Kinase Statistic: -0.7527
  Mean Significance Score: 1.23
  Mean Specificity Score: 0.04291
Fes (P07332)
  Mean Significance Score: 2.048
  Mean Specificity Score: 1.058
Fes (P07332); listed as KIM-161
  Mean Final score (Kinase score): 3.13 and 3.128
HER2 (P04626)
  Mean Final score (Kinase score): 2.103
  Mean Kinase Statistic: -1.031
  Mean Significance Score: 1.88
  Mean Specificity Score: 0.08906
